Measurements published in patent publication US20260256772A1, “BENZOTHIAZOLE COMPOUND AND USE THEREOF” (NANJING REJU THERAPEUTICS, INC., priority 2022, published 2026).

Experiments:
senescent cells = assay: Senescent cell killing, CellTiter-Glo cell viability; assay type: cell-based, human, mouse; settings: activity of killing senescent cells; cell type not specified
From the text: In this test example, human non-small cell lung cancer cell line (A549 cells), human embryonic lung fibroblast cell line (IMR90 cells), human retinal pigment epithelial cells (RPE cells), mouse chondrocytes, and mouse skin fibroblasts were selected. The above cells were induced by etoposide ([…]) to obtain their senescent cells. The effect of the target compounds on the viability of normal and senescent cells above was examined, thus assessing the specific killing effect of the compounds on senescent cells above.
Briefly, senescent and normal cells above were selected and plated separately (96-well plates). […] 2A to 2E.

diabetic retinopathy = assay: Mouse model of diabetic retinopathy (STZ), retinal Evans blue penetration assay; assay type: in vivo; settings: intravitreal (IVT), 1 μL of 200 μM at 8 and 9 weeks after STZ, FIG. 4
Method: The efficacy of the compounds of the present disclosure was studied in a mouse model of diabetic retinopathy by multiple administrations of streptozotocin (STZ). C57BL/6J mice at 6 to 7 weeks were weighed and their baseline blood glucose was measured (Sino). STZ (Sigma-Alderich) was injected intraperitoneally into the mice at 55 mg/Kg for five consecutive days. Age-matched controls were injected with buffer only. Blood glucose was measured again one week after the last STZ injection. 1 μL of the test compound (200 μM, a suspension formulated in 0.015% polysorbate 80, 0.2% sodium phosphate, 0.75% sodium chloride, pH 7.2) was injected intravitreally into the STZ-treated diabetic C57BL/6J mice at 8 and 9 weeks after STZ administration. 10 weeks after STZ treatment, the retinal Evans blue penetration assay was performed.

osteoarthritis = assay: Osteoarthritis animal model; assay type: in vivo, mice; settings: intra-articular injection, FIG. 7
Method: In this test example, the efficacy of the compounds of the present disclosure was tested on osteoarthritis in an osteoarthritis animal model.
The osteoarthritis animal model was constructed by the following steps. The mice were anesthetized with isoflurane, and fixed. The hair on the right hind limb of the mice was shaved and the skin was disinfected with alcohol, and the skin of the joints was cut. Under an optical microscope, the inside of the right knee joint was incised longitudinally with a blade, without cutting the patellar ligament. The patellar ligament was pulled to one side with constant hemostasis by compression with sterile cotton swabs such that the joint cavity was fully exposed. Saline was added dropwise in time to avoid the drying up of the joint cavity. The excess muscle tissue was gently separated with a blunt forceps to expose the meniscus ligament. The anterior cruciate ligament was found in the depth of the joint cavity and cut with a micro scissor. Then the wound was disinfected with penicillin solution, the muscle was sutured with sterile needle and thread, and the skin tissue was finally sutured. The efficacy of the drug was determined by intra-articular injection administration. At the endpoint of the test, continued pain threshold of the plantar was detected, and the bone joints were stained with safranin fast green.

Alzheimer's disease = Alzheimer's disease APP×PS1 transgenic mouse model; assay type: in vivo; settings: intraperitoneal injection, 11 consecutive weeks, twice a week, FIG. 8
Method: In this test example, the efficacy of the compounds of the present disclosure was tested on Alzheimer's disease in an animal model of Alzheimer's disease. Briefly, a transgenic mouse model of APP×PS1 (purchased from Cyagen Biosciences) was selected, and the compound of the present disclosure was administered by intraperitoneal injection for 11 consecutive weeks, twice a week. Alterations in amyloid in the cerebral cortex of the mice were observed.

hepatic fibrosis = assay: Hepatic fibrosis mouse model (CCl4); assay type: in vivo, C57BL/6N mice; settings: FIG. 9; for serum alanine aminotransferase (ALT) levels / serum aspartate aminotransferase (AST) levels: intraperitoneal (IP) injection twice a week from third week of modelling; for pathology scores: intraperitoneal (IP) injection, liver Masson staining
Method: In this test example, the efficacy of the compounds of the present disclosure was tested on hepatic fibrosis in an animal model of hepatic fibrosis. Briefly, C57BL/6N mice, male, 7 to 8 weeks old, 24 to 28 g of body weight, were used. The mouse model of hepatic fibrosis was induced by intraperitoneal injection of CCl4 solution at a dosage of 1 mL/kg, with a dosing frequency of 2 times/week, and a modelling cycle of 6 weeks. Dosing via intraperitoneal injection was started starting from the third week of modelling twice a week. At the end of the test, serum was collected, and liver tissue was taken for Masson staining index assay.

aging skin = assay: Aging skin, naturally aging mouse model; assay type: in vivo, C57bl/6J mice; settings: skin application twice a week for 6 consecutive weeks, FIG. 10
Method: In this test example, aged female C57bl/6J mice (22 months old) were used. The drug was administered by skin application twice a week for 6 consecutive weeks.

renal fibrosis = assay: Renal fibrosis animal model (ureter ligation); assay type: in vivo, C57BL/6J mice; settings: FIG. 11; for serum creatinine (Cr) levels / urea nitrogen (BUN) levels: intraperitoneal (IP) injection from 2nd week of modelling; for pathology: intraperitoneal (IP) injection, kidney Masson staining
Method: In this test example, the efficacy of the compound of the present disclosure was tested on renal fibrosis in an animal model of renal fibrosis. Briefly, C57BL/6J mice, male, 7 to 8 weeks old, were used. The mice were anaesthetized, made to lie supine on a foam board, and disinfected with iodophor, and a longitudinal incision was made in the skin in the middle of the lower abdomen to locate the white line of the abdominal muscle, where the abdominal muscle, fascia and peritoneal layer were dissected. After exposing the surgical field, the kidneys were exposed by pushing the stomach and mesentery of the mice to the right side with a gauze soaked with saline. The model of renal fibrosis was constructed by locating the transparent ureter from the renal pelvis along the renal artery, separating the left ureter, ligating the upper ⅓ of the left ureter, suturing the incision layer by layer, and finally disinfecting with iodophor. Dosing via intraperitoneal injection started from the 2nd week of modelling. At the end of the experiment, the mouse serum was collected, and kidney tissues were taken for Masson staining index assay.

hypertrophic scars = assay: Rabbit ear hypertrophic scar model; assay type: in vivo, New Zealand white rabbits; settings: 150 μM, 100 μL injected into each lesion once a week, 4 injections, FIG. 12
Method: In this test example, the efficacy of the compounds of the present disclosure was tested on hypertrophic scars in a rabbit ear hypertrophic scar animal model. Briefly, 15 New Zealand white rabbits, male, 3 months old, were used. The New Zealand rabbits were anaesthetized with sodium pentobarbital and six circular full-thickness wounds with a diameter of 10 mm were made on the ventral surface of each ear by removing the epidermis, dermis and perichondrium to expose the cartilage. The rabbits were randomly divided into control, RX001 experimental and RX301 experimental groups. On postoperative day 14, after complete re-epithelialization of the wound surface, the compound (150 μM, 100 μL, dissolved in DMSO solution) or negative control DMSO 100 μL was injected into the center of each lesion from the wound edge once a week for a total of 4 injections. Improvement of scar formation by the drugs was assessed by SEI (Scar Excess Index).

Structure (SMILES) | IC50 (senescent cells) | vascular permeability, choroidal vascular leakage (diabetic retinopathy) | vascular permeability, retinal vascular leakage (diabetic retinopathy) | pathology scores of safranin fast green staining (osteoarthritis) | plantar mechanical pain threshold (osteoarthritis) | Aβ42 pathogenic protein indicators (Alzheimer's disease) | serum alanine aminotransferase (ALT) levels (hepatic fibrosis) | serum aspartate aminotransferase (AST) levels (hepatic fibrosis) | pathology scores (hepatic fibrosis) | epidermal thickness scores of the skins (aging skin) | serum creatinine (Cr) levels (renal fibrosis) | urea nitrogen (BUN) levels (renal fibrosis) | pathology (renal fibrosis) | scar excess index (hypertrophic scars)
CCN1CCN(C(=O)c2nc(N3CCc4cccc(C(=O)Nc5nc6ccccc6s5)c4C3)ccc2-c2cnn(CC34CC5CC(CC(C5)C3)C4)c2C)CC1 [RX001] | 0.2 to 1 µM | improved | improved | statistically significant improvements | statistically significant improvements | statistically significant improvements | statistically significant improvements | statistically significant improvements | statistically significant improvements | statistically significant improvements | statistically significant improvements | statistically significant improvements | statistically significant improvements | statistically significant improvement
Cc1c(-c2ccc(N3CCc4cccc(C(=O)Nc5nc6ccccc6s5)c4C3)nc2C(=O)N2CCC(CCOP(=O)(O)O)CC2)cnn1CC12CC3CC(CC(C3)C1)C2 [RX301] | < 0.2 µM | improved | improved | statistically significant improvements | statistically significant improvements | statistically significant improvements | statistically significant improvements | statistically significant improvements | statistically significant improvements | statistically significant improvements | statistically significant improvements | statistically significant improvements | statistically significant improvements | statistically significant improvement
